Results reported in US11198686B2, “Crystal form and salt form of pyridone compound and preparation method therefor” (GUANGZHOU JOYO PHARMATECH CO., LTD., priority 2017, dated 2021).
≈ marks a conversion by molar mass, not a printed value.

Key:
[1] = Study on polymorphism of Compound 1 (suspension in solvents, XRPD); format: physicochemical; details: for Crystal form: 40° C., 2 days
Procedure: Approximate 50 mg of the sample were weighed and added to separate 4.0 mL glass vials, respectively, followed by addition of an appropriate amount of the solvents or solvent mixture (see the table below) to give a suspension. After shaking at 40° C. for 2 days, all the samples were taken out and centrifuged in a centrifuge at 8000 r/min for 5 minutes. The supernatant was discarded, and the remaining solid was dried in a 35° C. vacuum drying box for two days. The dried samples were taken out for XRPD detection.

TNF-α = assay: Ex-vivo effect on endotoxin LPS-induced TNF-α in rat blood (ELISA); format: cell-based, Sprague Dawley rats
Procedure: Experimental objective: testing the effect of Compound 1 on bacterial lipopolysaccharide (LPS)-induced TNF-α in rat blood to evaluate the anti-inflammatory effect ex-vivo
Sprague Dawley rats (male, 280-310 g, Shanghai Slac Laboratory Animal CO. LTD)
Rat TNF-alpha Quantikine ELISA Kit (R&D, #SRTA00)
A solution of the compound was prepared (5 mM or 1 mM), and 40 μL of the prepared solution was added into a 48-well cell culture plate, respectively (the final concentration of the compounds was 0.5 or 0.1 mM). The rats were anaesthetized with isoflurane and the blood was collected from the abdominal aorta (Heparin anticoagulant). The blood was added into the 48-well cell culture plate (320 μL per well) containing the compounds to be tested. Afterwards, the 48-well cell culture plate was incubated at 37° C. for 30 minutes. Then the plate was taken out, and 40 μL of LPS (the final concentration was 100 μg/mL) was added and mixed evenly. The resulting mixture was incubated at 37° C. After 5 hours, the 48-well plate was taken out and the blood was transferred into 1.5 mL centrifuge tubes and centrifuged in a centrifuge (4,500 rpm, 4° C., 5 min). The supernatant was isolated to obtain the plasma, which was aliquoted (20 μL per well) into a 96-well sample plate, and then sharp-frozen and preserved in a refrigerator (−80° C.). On the second day, the TNF-α level in the plasma samples was determined by using R&D ELISA kits according to the kit specification. The data was analyzed by EXCEL and Prism.

[2] = Approximate solubility of crystal form A in different solvents (manual stepwise dilution); format: physicochemical; details: thermodynamic from solid, ambient temperature
Procedure: In this study, the method of manual stepwise dilution along with the observation of the dissolution under ambient temperature condition was used for determination. About 2 mg of crystal form A of Compound 1 was added to separate HPLC vials, followed by multiple addition of organic solvents or the mixed solvents (Table 5) in a small amount, and the dissolution of the compound was monitored.

[3] = system: idiopathic pulmonary fibrosis; assay: SD rat left unilateral pulmonary fibrosis model; format: in vivo
[4] = Solid-state stability test of crystal form A under high temperature and high humidity (HPLC, XRPD); format: physicochemical; details: for Appearance / Crystal form / Purity / Total impurities: open
Procedure: 16 samples of 10 mg of crystal form A were weighed in parallel and spread evenly on the bottom of glass bottles, and 8 samples of 20 mg of crystal form A were spread out into a thin layer. All sample bottles were sealed with aluminum foil, and some small holes were punched on the aluminum foil to allow the samples to fully contact with the ambient air. The samples were placed at 40° C./75% RH and 60° C./75% RH for 1 month, 2 months and 3 months, respectively.
Analytical method: Agilent 1260 HPLC with DAD detector or Waters 2695 HPLC with PDA detector was used: column: Waters Atlantis dC18 (4.6 mm×150 mm, 3.0 μm); column temperature: 40° C.; flow rate: 1.0 mL/min; detection wavelength: 230 nm; injection volume: 10 μL; sample concentration: 0.5 mg/mL; diluent: acetonitrile:water=1:1 (v/v); the following mobile phase gradients were used for analysis: […]

[5] = Solid-state physical stability test of crystal form A under different temperature, humidity and light irradiation; format: physicochemical; details: for Appearance / Crystal form: 10 d
Procedure: 4 samples of 100 mg of crystal form A solid were weighed in parallel and spread evenly on the bottom of the glass bottles into a thin layer. The bottles were sealed with aluminum foil, and some small holes were punched on the aluminum foil to allow the sample to be fully in contact with the ambient air. The 4 samples prepared were placed under the conditions of 25° C./92.5% RH, 60° C., 40° C./75% RH and light irradiation, and the physical stability of the samples on the 10th day was examined. In the meantime, about 100 mg of crystal form A solid was weighed separately, placed on the bottom of a glass sample bottle, sealed with a screw cap and stored at −20° C., this sample was used as the control sample. On the 10th day, all samples were taken out, and returned to room temperature. The appearance change of the samples was observed, and XRPD was used to detect the crystal form of the samples. By comparing the accelerated samples with the control sample, the solid-state physical stability of crystal form A of Compound 1 was determined.

CC1(c2ccc(=O)n(-c3ccsc3)c2)COC1 [Compound 1]
Crystal form ([1]; suspension in Acetone): Form A | Crystal form ([1]; suspension in Acetone:Water (1:2)): Form A | Crystal form ([1]; suspension in Acetonitrile): Form A | Crystal form ([1]; suspension in Ethanol): Form A | Crystal form ([1]; suspension in Ethyl acetate): Form A | Crystal form ([1]; suspension in Water): Form A

Cc1ccc(=O)n(-c2ccccc2)c1 [Pirfenidone (PFD), Pirfenidone, reference compound]
inhibition at 500 µM (TNF-α; rat blood, LPS 100 μg/mL, compound 0.5 mM): 53.5%

CC1(c2ccc(=O)n(-c3ccsc3)c2)COC1 [crystal form A]
solubility ([2]; aqueous with cosolvent or surfactant or cyclodextrin, Acetone-water (1:2)): 52 to 103 mg/mL (≈ 210 to 416 mM) | solubility ([2]; aqueous with cosolvent or surfactant or cyclodextrin, Acetonitrile-water (1:1)): > 100 mg/mL | solubility ([2]; aqueous with cosolvent or surfactant or cyclodextrin, Ethanol-water (1:1)): > 100 mg/mL | solubility ([2]; aqueous with cosolvent or surfactant or cyclodextrin, Ethanol-water (3:1)): > 104 mg/mL | solubility ([2]; aqueous with cosolvent or surfactant or cyclodextrin, Isopropanol-water (1:1)): > 102 mg/mL | solubility ([2]; aqueous with cosolvent or surfactant or cyclodextrin, Methanol-water (1:1)): > 102 mg/mL | solubility ([2]; aqueous with cosolvent or surfactant or cyclodextrin, Methanol-water (3:1)): > 104 mg/mL | solubility ([2]; organic solvent or mixture, 1,4-dioxane): > 102 mg/mL | solubility ([2]; organic solvent or mixture, 2-Methyltetrahydrofuran): 34 to 51 mg/mL (≈ 137 to 206 mM) | solubility ([2]; organic solvent or mixture, Acetone): 52 to 103 mg/mL (≈ 210 to 416 mM) | solubility ([2]; organic solvent or mixture, Acetonitrile): > 100 mg/mL | solubility ([2]; organic solvent or mixture, Cyclohexane): < 2 mg/mL | solubility ([2]; organic solvent or mixture, Ethanol): 51 to 102 mg/mL (≈ 206 to 412 mM) | solubility ([2]; organic solvent or mixture, Ethyl acetate): 34 to 51 mg/mL (≈ 137 to 206 mM) | solubility ([2]; organic solvent or mixture, Heptane): < 2 mg/mL | solubility ([2]; organic solvent or mixture, Isopropanol): 34 to 52 mg/mL (≈ 137 to 210 mM) | solubility ([2]; organic solvent or mixture, Isopropyl acetate): 20 to 34 mg/mL (≈ 80.9 to 137 mM) | solubility ([2]; organic solvent or mixture, Methanol): > 104 mg/mL | solubility ([2]; organic solvent or mixture, Methyl ethyl ketone): 52 to 104 mg/mL (≈ 210 to 421 mM) | solubility ([2]; organic solvent or mixture, Methyl isobutyl ketone): 34 to 51 mg/mL (≈ 137 to 206 mM) | solubility ([2]; organic solvent or mixture, Methyl tert-butyl ether): < 2 mg/mL | solubility ([2]; organic solvent or mixture, Tetrahydrofuran): 51 to 102 mg/mL (≈ 206 to 412 mM) | solubility ([2]; organic solvent or mixture, Toluene): 35 to 52 mg/mL (≈ 142 to 210 mM) | solubility ([2]; organic solvent or mixture, n-butanol): 50 to 100 mg/mL (≈ 202 to 404 mM) | solubility ([2]; Water): 10 to 21 mg/mL (≈ 40.4 to 84.9 mM) | Inhibitory effect on idiopathic pulmonary fibrosis (in words) [3]: significant inhibitory effect | Appearance ([4]; 40° C./75% RH, 1 M): White powder | Crystal form ([4]; 40° C./75% RH, 1 M): Form A | Purity ([4]; 40° C./75% RH, 1 M): 99.949% | Total impurities ([4]; 40° C./75% RH, 1 M): 0.051% | Appearance ([4]; 40° C./75% RH, 2 M): White powder | Crystal form ([4]; 40° C./75% RH, 2 M): Form A | Purity ([4]; 40° C./75% RH, 2 M): 99.948% | Total impurities ([4]; 40° C./75% RH, 2 M): 0.052% | Appearance ([4]; 40° C./75% RH, 3 M): White powder | Crystal form ([4]; 40° C./75% RH, 3 M): Form A | Purity ([4]; 40° C./75% RH, 3 M): 99.947% | Total impurities ([4]; 40° C./75% RH, 3 M): 0.053% | Appearance ([4]; 60° C./75% RH, 1 M): White powder | Crystal form ([4]; 60° C./75% RH, 1 M): Form A | Purity ([4]; 60° C./75% RH, 1 M): 99.949% | Total impurities ([4]; 60° C./75% RH, 1 M): 0.051% | Appearance ([4]; 60° C./75% RH, 2 M): White powder | Crystal form ([4]; 60° C./75% RH, 2 M): Form A | Purity ([4]; 60° C./75% RH, 2 M): 99.948% | Total impurities ([4]; 60° C./75% RH, 2 M): 0.052% | Appearance ([4]; 60° C./75% RH, 3 M): White powder | Crystal form ([4]; 60° C./75% RH, 3 M): Form A | Purity ([4]; 60° C./75% RH, 3 M): 99.950% | Total impurities ([4]; 60° C./75% RH, 3 M): 0.050% | Solid-state stability (conclusion) ([4]; within three months, 40° C./75% RH and 60° C./75% RH): stable | Stability of crystal form in solvents (conclusion) ([1]; under the conditions of the solvents of Table 4): stable | Appearance ([5]; 25° C./92.5% RH (open)): White | Crystal form ([5]; 25° C./92.5% RH (open)): Form A | Appearance ([5]; 40° C./75% RH (open)): White | Crystal form ([5]; 40° C./75% RH (open)): Form A | Appearance ([5]; 60° C. (open)): White | Crystal form ([5]; 60° C. (open)): Form A | Appearance ([5]; Light irradiation): White | Crystal form ([5]; Light irradiation): Form A | Solid-state physical stability (conclusion) ([5]; within 10 days under each condition): stable | Inhibitory effect on TNF-α level induced by LPS (in words) (TNF-α; final concentration 0.1 mM, inhibition significantly higher than Pirfenidone): significant inhibitory effect | inhibition at 100 µM (TNF-α; rat blood, LPS 100 μg/mL, compound 0.1 mM): 80.8%
